# ChEMBL document CHEMBL1240349, “Influence of tigecycline on expression of virulence factors in biofilm-associated cells of methicillin-resistant Staphylococcus aureus” (2010)
# Key:
# Format in all cases: functional
# Staphylococcus aureus [1] = experiment: Increase in clfB expression in biofilm-associated cells of epidemic methicillin-resistant Staphylococcus aureus isolate 16-1 at 4 times MIC incubated for 1 hr by RT-PCR relative to untreated control
# Staphylococcus aureus [2] = experiment: Increase in nusG gene expression in biofilm-associated cells of epidemic methicillin-resistant Staphylococcus aureus isolate 16 at 4 times MIC incubated for 1 hr by whole genome microarray relative to untreated control
# Staphylococcus aureus [3] = experiment: Decrease in capG gene expression in biofilm-associated cells of epidemic methicillin-resistant Staphylococcus aureus isolate 16 at 4 times MIC incubated for 1 hr by whole genome microarray relative to untreated control
# Staphylococcus aureus [4] = experiment: Increase in fnbA gene expression in biofilm-associated cells of epidemic methicillin-resistant Staphylococcus aureus isolate 16 at 4 times MIC incubated for 1 hr by whole genome microarray relative to untreated control
# Staphylococcus aureus [5] = experiment: Increase in isaA expression in biofilm-associated cells of epidemic methicillin-resistant Staphylococcus aureus isolate 16-1 at 4 times MIC incubated for 1 hr by RT-PCR relative to untreated control
# Staphylococcus aureus [6] = experiment: Increase in rplB gene expression in biofilm-associated cells of epidemic methicillin-resistant Staphylococcus aureus isolate 16 at 4 times MIC incubated for 1 hr by whole genome microarray relative to untreated control
# Staphylococcus aureus [7] = experiment: Decrease in sasF expression in biofilm-associated cells of epidemic methicillin-resistant Staphylococcus aureus isolate 16-2 at 4 times MIC incubated for 1 hr by RT-PCR relative to untreated control
# Staphylococcus aureus [8] = experiment: Decrease in clpC expression in biofilm-associated cells of epidemic methicillin-resistant Staphylococcus aureus isolate 16-1 at 4 times MIC incubated for 1 hr by RT-PCR relative to untreated control
# Staphylococcus aureus [9] = experiment: Decrease in capC expression in biofilm-associated cells of epidemic methicillin-resistant Staphylococcus aureus isolate 16-2 at 4 times MIC incubated for 1 hr by RT-PCR relative to untreated control
# Staphylococcus aureus [10] = experiment: Decrease in sasF gene expression in biofilm-associated cells of epidemic methicillin-resistant Staphylococcus aureus isolate 16 at 4 times MIC incubated for 1 hr by RT-PCR relative to untreated control
# Staphylococcus aureus [11] = experiment: Increase in topA gene expression in biofilm-associated cells of epidemic methicillin-resistant Staphylococcus aureus isolate 16 at 4 times MIC incubated for 1 hr by whole genome microarray relative to untreated control
# Staphylococcus aureus [12] = experiment: Increase in tsf gene expression in biofilm-associated cells of epidemic methicillin-resistant Staphylococcus aureus isolate 16 at 4 times MIC incubated for 1 hr by whole genome microarray relative to untreated control
# Staphylococcus aureus [13] = experiment: Decrease in dinR gene expression in biofilm-associated cells of epidemic methicillin-resistant Staphylococcus aureus isolate 16 at 4 times MIC incubated for 1 hr by whole genome microarray relative to untreated control
# Staphylococcus aureus [14] = experiment: Increase in infC gene expression in biofilm-associated cells of epidemic methicillin-resistant Staphylococcus aureus isolate 16 at 4 times MIC incubated for 1 hr by whole genome microarray relative to untreated control
# Staphylococcus aureus [15] = experiment: Increase in dltB gene expression in biofilm-associated cells of epidemic methicillin-resistant Staphylococcus aureus isolate 16 at 4 times MIC incubated for 1 hr by whole genome microarray relative to untreated control
# Staphylococcus aureus [16] = experiment: Decrease in capC gene expression in biofilm-associated cells of epidemic methicillin-resistant Staphylococcus aureus isolate 16 at 4 times MIC incubated for 1 hr by RT-PCR relative to untreated control
# Staphylococcus aureus [17] = experiment: Decrease in fnbB expression in biofilm-associated cells of epidemic methicillin-resistant Staphylococcus aureus isolate 16-2 at 4 times MIC incubated for 1 hr by RT-PCR relative to untreated control
# Staphylococcus aureus [18] = experiment: Increase in rpoC gene expression in biofilm-associated cells of epidemic methicillin-resistant Staphylococcus aureus isolate 16 at 4 times MIC incubated for 1 hr by whole genome microarray relative to untreated control
# Staphylococcus aureus [19] = experiment: Decrease in capC expression in biofilm-associated cells of epidemic methicillin-resistant Staphylococcus aureus isolate 16-1 at 4 times MIC incubated for 1 hr by RT-PCR relative to untreated control
# Staphylococcus aureus [20] = experiment: Decrease in clfB expression in biofilm-associated cells of epidemic methicillin-resistant Staphylococcus aureus isolate 16-2 at 4 times MIC incubated for 1 hr by RT-PCR relative to untreated control
# Staphylococcus aureus [21] = experiment: Decrease in clpC gene expression in biofilm-associated cells of epidemic methicillin-resistant Staphylococcus aureus isolate 16 at 4 times MIC incubated for 1 hr by RT-PCR relative to untreated control
# Staphylococcus aureus [22] = experiment: Increase in tuf gene expression in biofilm-associated cells of epidemic methicillin-resistant Staphylococcus aureus isolate 16 at 4 times MIC incubated for 1 hr by whole genome microarray relative to untreated control
# Staphylococcus aureus [23] = experiment: Increase in sstD gene expression in biofilm-associated cells of epidemic methicillin-resistant Staphylococcus aureus isolate 16 at 4 times MIC incubated for 1 hr by whole genome microarray relative to untreated control
# Staphylococcus aureus [24] = experiment: Increase in dltA gene expression in biofilm-associated cells of epidemic methicillin-resistant Staphylococcus aureus isolate 16 at 4 times MIC incubated for 1 hr by whole genome microarray relative to untreated control
# Staphylococcus aureus [25] = experiment: Increase in fnbB gene expression in biofilm-associated cells of epidemic methicillin-resistant Staphylococcus aureus isolate 16 at 4 times MIC incubated for 1 hr by RT-PCR relative to untreated control
# Staphylococcus aureus [26] = experiment: Increase in isaA gene expression in biofilm-associated cells of epidemic methicillin-resistant Staphylococcus aureus isolate 16 at 4 times MIC incubated for 1 hr by RT-PCR relative to untreated control
# Staphylococcus aureus [27] = experiment: Increase in dltC gene expression in biofilm-associated cells of epidemic methicillin-resistant Staphylococcus aureus isolate 16 at 4 times MIC incubated for 1 hr by whole genome microarray relative to untreated control
# Staphylococcus aureus [28] = experiment: Increase in mnhG expression in biofilm-associated cells of epidemic methicillin-resistant Staphylococcus aureus isolate 16-1 at 4 times MIC incubated for 1 hr by RT-PCR relative to untreated control
# Staphylococcus aureus [29] = experiment: Decrease in capG expression in biofilm-associated cells of epidemic methicillin-resistant Staphylococcus aureus isolate 15 at 4 times MIC incubated for 1 hr by RT-PCR relative to untreated control
# Staphylococcus aureus [30] = experiment: Decrease in icaC expression in biofilm-associated cells of epidemic methicillin-resistant Staphylococcus aureus isolate 16-1 at 4 times MIC incubated for 1 hr by RT-PCR relative to untreated control
# Staphylococcus aureus [31] = experiment: Decrease in tst expression in biofilm-associated cells of epidemic methicillin-resistant Staphylococcus aureus isolate 16-1 at 4 times MIC incubated for 1 hr by RT-PCR relative to untreated control
structure (smiles),measurement,setting,value
CN(C)c1cc(NC(=O)CNC(C)(C)C)c(O)c2c1C[C@H]1C[C@H]3[C@H](N(C)C)C(O)=C(C(N)=O)C(=O)[C@@]3(O)C(O)=C1C2=O [TIGECYCLINE],fold change (FC),Staphylococcus aureus [1],7.5
same,fold change (FC),Staphylococcus aureus [2],4.34
same,fold change (FC),Staphylococcus aureus [3],2.3
same,fold change (FC),Staphylococcus aureus [4],2.3
same,fold change (FC),Staphylococcus aureus [5],7.68
same,fold change (FC),Staphylococcus aureus [6],13.38
same,fold change (FC),Staphylococcus aureus [7],3.53
same,fold change (FC),Staphylococcus aureus [8],1.14
same,fold change (FC),Staphylococcus aureus [9],1.09
same,fold change (FC),Staphylococcus aureus [10],1.32
same,fold change (FC),Staphylococcus aureus [11],2.26
same,fold change (FC),Staphylococcus aureus [12],3.23
same,fold change (FC),Staphylococcus aureus [13],3.31
same,fold change (FC),Staphylococcus aureus [14],6.29
same,fold change (FC),Staphylococcus aureus [15],2.02
same,fold change (FC),Staphylococcus aureus [16],1.75
same,fold change (FC),Staphylococcus aureus [17],1.53
same,fold change (FC),Staphylococcus aureus [18],3.28
same,fold change (FC),Staphylococcus aureus [19],1.75
same,fold change (FC),Staphylococcus aureus [20],1.18
same,fold change (FC),Staphylococcus aureus [21],1.14
same,fold change (FC),Staphylococcus aureus [22],7.41
same,fold change (FC),Staphylococcus aureus [23],3.27
same,fold change (FC),Staphylococcus aureus [24],2.63
same,fold change (FC),Staphylococcus aureus [25],3.03
same,fold change (FC),Staphylococcus aureus [26],7.68
same,fold change (FC),Staphylococcus aureus [27],2.29
same,fold change (FC),Staphylococcus aureus [28],5.16
same,fold change (FC),Staphylococcus aureus [29],1.58
same,fold change (FC),Staphylococcus aureus [30],2.23
same,fold change (FC),Staphylococcus aureus [31],1.51
